From the supplement of paper PMC10307832 come the findings set out here.

What all share (assay): relative viability (nuclei count vs DMSO), 5 days (fraction); higher = more cells survive
Compound in assay [1]: CC1CC(=O)N(C2=CN=C(N=C2N1C3CCCC3)NC4=C(C=C(C=C4)C(=O)NC5CCN(CC5)C)OC)C [NPK76-II-72-1] + C[C@@H](Oc1cc(-c2cnn(C3CCNCC3)c2)cnc1N)c1c(Cl)ccc(F)c1Cl [Crizotinib] (partner 1 µM)
The essentials:
(§1)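 After 5 days of treatment, lung cancer cells in 1536-well plates were fixed and stained in a single step (final 0.05% Triton X-100, 1% formaldehyde, 1 ug/ml Hoechst) and their nuclei counted on 4× images. Treatment had been applied by pin tool the day after seeding as one drug alone or as a fixed anchor-drug dose with five library-drug doses (not always all listed) in √10 steps. Relative viability is the nuclei count of treated wells divided by that of vehicle wells, and values are medians of duplicate plates.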

Compound in assay [2]: CC[C@@H]1C(=O)N(C)c2cnc(Nc3ccc(C(=O)NC4CCN(C)CC4)cc3OC)nc2N1C1CCCC1 [BI-2536] + O=C(CCCCCCC(=O)Nc1ccccc1)NO [Vorinostat] (partner 1 µM)
In short, it runs like this:
as §1

Compound in assay [3]: CC[C@@H]1C(=O)N(C)c2cnc(Nc3ccc(C(=O)NC4CCN(C)CC4)cc3OC)nc2N1C1CCCC1 [BI-2536] + Cc1nc(NC(=O)N2CCC[C@H]2C(N)=O)sc1-c1ccnc(C(C)(C)C(F)(F)F)c1 [Alpelisib] (partner 2 µM)
In short, it runs like this: as §1

Compound in assay [4]: CC1CC(=O)N(C2=CN=C(N=C2N1C3CCCC3)NC4=C(C=C(C=C4)C(=O)NC5CCN(CC5)C)OC)C [NPK76-II-72-1] + Nc1nc2[nH]cc(CCc3ccc(C(=O)N[C@@H](CCC(=O)O)C(=O)O)cc3)c2c(=O)[nH]1 [Pemetrexed] (partner 0.2 µM)
The essentials:
as §1

In the case of UMC-11, the relative viability is 0.622 in assay [1] (first compound 0.01 µM); 0.574 in assay [1] (first compound 0.03162 µM); 0.669 in assay [1] (first compound 0.1 µM); 0.532 in assay [1] (first compound 0.3162 µM); 0.707 in assay [1] (first compound 1 µM); 0.343 in assay [2] (first compound 0.01 µM). The relative viability in assay [2] (first compound 0.03162 µM) stood at 0.315; in assay [2] (first compound 0.1 µM), 0.187; in assay [2] (first compound 0.3162 µM), 0.18; in assay [2] (first compound 1 µM) it was 0.145; in assay [3] (first compound 0.01 µM), 0.978; in assay [3] (first compound 0.03162 µM), 0.733. The relative viability worked out at 0.312 in assay [3] (first compound 0.1 µM); 0.152 in assay [3] (first compound 0.3162 µM); 0.126 in assay [3] (first compound 1 µM); 0.79 in assay [4] (first compound 0.01 µM); 0.869 in assay [4] (first compound 0.03162 µM); 0.768 in assay [4] (first compound 0.1 µM). Also, the relative viability worked out at 0.728 in assay [4] (first compound 0.3162 µM) and 0.697 in assay [4] (first compound 1 µM).
